Two compounds from patent US10231954B2, “Neurodegenerative therapies” (LYTIX BIOPHARMA AS, priority 2014, dated 2019) can be followed below.

What all share (assay type): biochemical
What all share (conditions): 100 micromolar inhibitor concentration; 100 is no change

One test addresses T1, BRSK2 (Homo sapiens, UniProt Q8IWQ3).
T1 sequence (Q8IWQ3 1-736): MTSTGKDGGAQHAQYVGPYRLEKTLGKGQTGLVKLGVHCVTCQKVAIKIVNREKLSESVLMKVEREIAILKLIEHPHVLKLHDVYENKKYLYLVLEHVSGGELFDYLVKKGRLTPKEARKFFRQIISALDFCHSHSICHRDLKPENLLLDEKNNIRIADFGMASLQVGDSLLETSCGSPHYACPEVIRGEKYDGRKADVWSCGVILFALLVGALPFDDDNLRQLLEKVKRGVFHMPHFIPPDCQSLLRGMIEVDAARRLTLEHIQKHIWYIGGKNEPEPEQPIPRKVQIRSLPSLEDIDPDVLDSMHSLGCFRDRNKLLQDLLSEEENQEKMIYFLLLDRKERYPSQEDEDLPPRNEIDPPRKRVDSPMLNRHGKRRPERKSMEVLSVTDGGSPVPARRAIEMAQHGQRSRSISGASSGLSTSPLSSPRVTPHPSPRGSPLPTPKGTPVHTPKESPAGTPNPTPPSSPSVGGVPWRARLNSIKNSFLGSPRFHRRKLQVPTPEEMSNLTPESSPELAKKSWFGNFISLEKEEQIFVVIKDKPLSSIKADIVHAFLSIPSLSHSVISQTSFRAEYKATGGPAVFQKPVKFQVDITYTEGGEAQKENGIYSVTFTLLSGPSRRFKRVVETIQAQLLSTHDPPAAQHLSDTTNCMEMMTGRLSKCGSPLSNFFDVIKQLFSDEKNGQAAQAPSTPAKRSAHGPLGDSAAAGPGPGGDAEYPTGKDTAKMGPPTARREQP
The test is described as follows: Kinase profiling BRSK2. The source says: (§1) Any value less that 25 is considered to be highly significant inhibition.

Another test has as its target ERK5 (Homo sapiens, UniProt Q13164). The test is described as follows: Kinase profiling ERK5.
From the text: as §1

Another test concerns the target TIE2 (Homo sapiens, UniProt Q02763). The test is described as follows: Kinase profiling TIE2.
From the text: as §1

The next test deals with FGF-R1 (Homo sapiens, UniProt P11362). The test is described as follows: Kinase profiling FGF-R1.
From the text: as §1

The target in a further test is MARK2 (Homo sapiens, UniProt Q7KZI7). Description: Kinase profiling MARK2.
From the text: as §1

A further test has as its target MAPKAP-K2 (Homo sapiens, UniProt P49137). Description: Kinase profiling MAPKAP-K2.
From the text: as §1

A further test concerns the target SIK2 (Homo sapiens, UniProt Q9H0K1). The test is described as follows: Kinase profiling SIK2.
From the text: as §1

The next test has as its target MINK1 (Homo sapiens, UniProt Q8N4C8). Description: Kinase profiling MINK1.
From the text: as §1

The next test deals with T2, Aurora A (Homo sapiens, UniProt O14965).
T2 sequence (O14965 1-403): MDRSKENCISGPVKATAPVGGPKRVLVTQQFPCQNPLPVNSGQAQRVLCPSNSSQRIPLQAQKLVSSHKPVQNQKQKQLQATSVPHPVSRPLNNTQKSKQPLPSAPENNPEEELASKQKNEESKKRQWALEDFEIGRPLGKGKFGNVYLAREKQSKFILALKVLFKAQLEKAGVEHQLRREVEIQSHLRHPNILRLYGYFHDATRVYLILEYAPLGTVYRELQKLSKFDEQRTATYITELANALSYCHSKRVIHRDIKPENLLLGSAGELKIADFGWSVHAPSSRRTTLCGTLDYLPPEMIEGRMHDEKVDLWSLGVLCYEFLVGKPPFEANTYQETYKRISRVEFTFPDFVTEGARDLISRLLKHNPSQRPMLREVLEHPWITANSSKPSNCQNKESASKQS
Description: Kinase profiling Aurora A.
From the text: as §1

For the next test, the target named is T3, TAO1 (Homo sapiens, UniProt Q7L7X3).
T3 sequence (Q7L7X3 1-1001): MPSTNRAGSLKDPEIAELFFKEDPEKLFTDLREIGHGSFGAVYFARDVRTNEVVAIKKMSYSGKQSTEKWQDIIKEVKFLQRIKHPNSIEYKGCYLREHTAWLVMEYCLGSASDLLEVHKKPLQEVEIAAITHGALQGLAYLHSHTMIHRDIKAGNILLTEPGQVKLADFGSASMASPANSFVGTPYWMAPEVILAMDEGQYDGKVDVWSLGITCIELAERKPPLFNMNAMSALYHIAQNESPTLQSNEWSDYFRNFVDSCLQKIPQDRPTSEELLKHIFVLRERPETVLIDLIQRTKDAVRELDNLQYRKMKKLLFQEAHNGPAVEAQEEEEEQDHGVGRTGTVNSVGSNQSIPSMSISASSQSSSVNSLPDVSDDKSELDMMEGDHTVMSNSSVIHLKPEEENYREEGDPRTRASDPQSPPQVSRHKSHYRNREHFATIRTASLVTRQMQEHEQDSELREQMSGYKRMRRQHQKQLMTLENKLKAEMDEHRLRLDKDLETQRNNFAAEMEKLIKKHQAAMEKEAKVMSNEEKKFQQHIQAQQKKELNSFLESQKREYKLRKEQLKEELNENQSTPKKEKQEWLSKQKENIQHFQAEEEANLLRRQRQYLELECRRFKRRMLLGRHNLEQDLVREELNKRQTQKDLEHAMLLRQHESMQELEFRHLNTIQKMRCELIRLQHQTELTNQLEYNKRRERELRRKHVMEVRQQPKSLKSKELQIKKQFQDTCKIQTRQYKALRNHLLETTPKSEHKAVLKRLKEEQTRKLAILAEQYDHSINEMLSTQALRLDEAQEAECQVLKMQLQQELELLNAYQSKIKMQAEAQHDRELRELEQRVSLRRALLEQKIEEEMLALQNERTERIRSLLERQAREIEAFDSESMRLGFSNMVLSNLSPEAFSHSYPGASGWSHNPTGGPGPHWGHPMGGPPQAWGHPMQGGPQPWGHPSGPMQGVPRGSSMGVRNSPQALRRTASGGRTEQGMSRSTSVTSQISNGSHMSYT
The test is described as follows: Kinase profiling TAO1.
From the text: as §1

MAPKAP-K2, sequence (P49137 whole entry, species assumed): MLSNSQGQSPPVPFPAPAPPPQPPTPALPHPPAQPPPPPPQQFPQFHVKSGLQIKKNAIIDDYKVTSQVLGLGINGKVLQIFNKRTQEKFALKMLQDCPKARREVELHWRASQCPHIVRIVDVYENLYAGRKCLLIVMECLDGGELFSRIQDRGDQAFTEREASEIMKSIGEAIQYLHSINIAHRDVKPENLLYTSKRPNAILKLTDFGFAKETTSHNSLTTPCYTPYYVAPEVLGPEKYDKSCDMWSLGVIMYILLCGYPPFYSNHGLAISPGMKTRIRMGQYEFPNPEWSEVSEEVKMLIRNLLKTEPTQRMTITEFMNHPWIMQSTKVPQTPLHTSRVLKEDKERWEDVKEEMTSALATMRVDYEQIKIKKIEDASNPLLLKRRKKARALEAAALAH
TIE2, sequence (Q02763 23-1124, species assumed): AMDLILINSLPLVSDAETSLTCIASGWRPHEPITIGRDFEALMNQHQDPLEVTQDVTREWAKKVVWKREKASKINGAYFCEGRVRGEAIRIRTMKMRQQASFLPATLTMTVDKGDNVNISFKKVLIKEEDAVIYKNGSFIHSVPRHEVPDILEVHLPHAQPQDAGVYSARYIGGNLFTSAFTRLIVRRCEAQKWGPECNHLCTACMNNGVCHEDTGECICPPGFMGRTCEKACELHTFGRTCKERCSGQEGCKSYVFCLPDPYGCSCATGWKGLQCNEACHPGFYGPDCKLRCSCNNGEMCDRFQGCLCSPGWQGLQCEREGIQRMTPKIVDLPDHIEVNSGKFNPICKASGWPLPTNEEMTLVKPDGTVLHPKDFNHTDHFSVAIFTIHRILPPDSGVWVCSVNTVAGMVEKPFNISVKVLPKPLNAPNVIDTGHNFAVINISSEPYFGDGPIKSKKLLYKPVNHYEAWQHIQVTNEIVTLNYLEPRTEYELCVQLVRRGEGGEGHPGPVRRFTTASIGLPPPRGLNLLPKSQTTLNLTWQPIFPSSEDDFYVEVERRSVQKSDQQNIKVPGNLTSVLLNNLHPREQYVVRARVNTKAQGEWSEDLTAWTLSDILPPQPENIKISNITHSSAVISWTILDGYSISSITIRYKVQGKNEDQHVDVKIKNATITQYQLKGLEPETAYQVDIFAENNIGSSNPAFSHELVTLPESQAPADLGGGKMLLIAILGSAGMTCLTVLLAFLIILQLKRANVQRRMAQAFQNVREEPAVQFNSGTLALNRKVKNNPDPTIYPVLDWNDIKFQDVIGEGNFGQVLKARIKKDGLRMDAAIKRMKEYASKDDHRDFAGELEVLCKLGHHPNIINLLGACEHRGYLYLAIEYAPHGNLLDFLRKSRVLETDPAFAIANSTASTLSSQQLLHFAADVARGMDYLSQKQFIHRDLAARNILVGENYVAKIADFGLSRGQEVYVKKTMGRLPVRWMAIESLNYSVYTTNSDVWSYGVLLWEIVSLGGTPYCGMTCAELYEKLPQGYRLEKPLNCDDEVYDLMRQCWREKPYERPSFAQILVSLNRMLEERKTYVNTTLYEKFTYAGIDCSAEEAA
FGF-R1, sequence (P11362 22-822, species assumed): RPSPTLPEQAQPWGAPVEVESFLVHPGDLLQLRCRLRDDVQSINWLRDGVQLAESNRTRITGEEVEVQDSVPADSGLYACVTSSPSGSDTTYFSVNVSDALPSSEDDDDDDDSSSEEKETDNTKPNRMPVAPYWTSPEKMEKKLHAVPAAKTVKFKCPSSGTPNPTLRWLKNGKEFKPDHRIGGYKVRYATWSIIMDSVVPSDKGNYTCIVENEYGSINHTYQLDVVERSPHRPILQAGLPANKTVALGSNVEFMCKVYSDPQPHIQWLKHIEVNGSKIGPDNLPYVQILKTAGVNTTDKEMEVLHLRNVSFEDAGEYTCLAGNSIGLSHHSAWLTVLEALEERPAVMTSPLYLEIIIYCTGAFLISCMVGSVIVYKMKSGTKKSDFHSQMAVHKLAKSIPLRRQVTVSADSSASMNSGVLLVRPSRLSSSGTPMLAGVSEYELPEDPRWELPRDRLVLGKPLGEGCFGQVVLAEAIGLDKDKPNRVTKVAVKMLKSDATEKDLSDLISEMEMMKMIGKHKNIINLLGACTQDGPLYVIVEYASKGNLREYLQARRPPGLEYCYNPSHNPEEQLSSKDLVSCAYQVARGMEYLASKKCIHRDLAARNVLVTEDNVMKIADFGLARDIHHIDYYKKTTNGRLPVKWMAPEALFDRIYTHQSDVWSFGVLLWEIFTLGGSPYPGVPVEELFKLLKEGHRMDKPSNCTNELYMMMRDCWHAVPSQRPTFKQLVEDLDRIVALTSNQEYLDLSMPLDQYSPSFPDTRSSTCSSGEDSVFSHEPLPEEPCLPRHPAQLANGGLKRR
MARK2, sequence (Q7KZI7 whole entry, species assumed): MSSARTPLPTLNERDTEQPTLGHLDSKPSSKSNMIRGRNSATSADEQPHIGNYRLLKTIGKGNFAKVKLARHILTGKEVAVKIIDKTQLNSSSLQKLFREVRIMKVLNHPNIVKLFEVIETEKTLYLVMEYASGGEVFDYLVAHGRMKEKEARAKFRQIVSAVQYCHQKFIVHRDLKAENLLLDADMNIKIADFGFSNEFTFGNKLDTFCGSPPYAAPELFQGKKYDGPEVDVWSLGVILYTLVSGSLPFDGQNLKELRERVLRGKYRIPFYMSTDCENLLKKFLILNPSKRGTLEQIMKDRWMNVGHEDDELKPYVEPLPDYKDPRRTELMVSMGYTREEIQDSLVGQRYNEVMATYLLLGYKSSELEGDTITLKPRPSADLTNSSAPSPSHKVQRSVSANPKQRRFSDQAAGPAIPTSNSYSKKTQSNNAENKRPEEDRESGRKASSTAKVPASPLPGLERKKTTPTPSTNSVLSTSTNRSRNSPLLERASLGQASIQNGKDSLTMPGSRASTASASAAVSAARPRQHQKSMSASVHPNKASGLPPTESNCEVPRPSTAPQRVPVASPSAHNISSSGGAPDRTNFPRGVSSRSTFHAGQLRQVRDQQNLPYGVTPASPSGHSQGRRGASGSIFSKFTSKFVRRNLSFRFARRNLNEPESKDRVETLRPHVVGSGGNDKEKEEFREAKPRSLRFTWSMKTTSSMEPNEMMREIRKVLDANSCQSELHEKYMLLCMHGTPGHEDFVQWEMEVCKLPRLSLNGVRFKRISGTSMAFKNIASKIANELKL
MINK1, sequence (Q8N4C8 whole entry, species assumed): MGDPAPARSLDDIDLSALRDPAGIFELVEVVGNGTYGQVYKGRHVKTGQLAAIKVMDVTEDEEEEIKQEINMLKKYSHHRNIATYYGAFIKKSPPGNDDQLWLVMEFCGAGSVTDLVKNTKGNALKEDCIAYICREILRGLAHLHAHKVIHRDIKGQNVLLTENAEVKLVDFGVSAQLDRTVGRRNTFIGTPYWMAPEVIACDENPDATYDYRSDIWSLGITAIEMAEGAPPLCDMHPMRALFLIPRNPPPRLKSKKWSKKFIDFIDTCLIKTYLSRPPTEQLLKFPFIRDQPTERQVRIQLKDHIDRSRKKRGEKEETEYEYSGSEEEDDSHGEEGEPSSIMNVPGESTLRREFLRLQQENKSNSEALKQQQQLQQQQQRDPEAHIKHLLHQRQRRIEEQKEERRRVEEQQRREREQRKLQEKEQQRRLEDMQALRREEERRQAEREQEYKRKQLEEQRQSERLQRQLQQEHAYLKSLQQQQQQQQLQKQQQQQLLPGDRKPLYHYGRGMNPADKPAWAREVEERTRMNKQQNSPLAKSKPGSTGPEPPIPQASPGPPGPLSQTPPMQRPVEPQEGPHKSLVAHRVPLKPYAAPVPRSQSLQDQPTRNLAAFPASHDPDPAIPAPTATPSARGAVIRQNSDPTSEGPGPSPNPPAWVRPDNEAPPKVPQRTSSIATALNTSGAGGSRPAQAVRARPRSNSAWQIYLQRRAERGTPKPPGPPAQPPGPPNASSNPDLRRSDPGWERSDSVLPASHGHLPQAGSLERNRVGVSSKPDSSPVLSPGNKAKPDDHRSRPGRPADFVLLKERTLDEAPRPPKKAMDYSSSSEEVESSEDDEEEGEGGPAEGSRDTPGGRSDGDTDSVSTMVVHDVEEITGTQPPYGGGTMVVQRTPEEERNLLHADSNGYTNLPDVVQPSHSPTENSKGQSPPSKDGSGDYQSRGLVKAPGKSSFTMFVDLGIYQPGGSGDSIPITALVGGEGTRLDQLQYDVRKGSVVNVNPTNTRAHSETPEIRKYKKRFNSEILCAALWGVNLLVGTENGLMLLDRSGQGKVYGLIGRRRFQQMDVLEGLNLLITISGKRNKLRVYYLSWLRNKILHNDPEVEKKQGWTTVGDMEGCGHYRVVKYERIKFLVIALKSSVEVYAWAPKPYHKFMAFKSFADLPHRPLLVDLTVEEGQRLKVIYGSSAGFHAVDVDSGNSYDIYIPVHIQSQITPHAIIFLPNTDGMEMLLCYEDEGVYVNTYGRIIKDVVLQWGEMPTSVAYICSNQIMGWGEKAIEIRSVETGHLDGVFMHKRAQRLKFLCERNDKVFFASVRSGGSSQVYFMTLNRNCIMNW

For the compound `O=C(Nc1nc2ccc(O)cc2s1)c1ccncc1` [Compound 08-42], on BRSK2, the “residual kinase activity, BRSK2” value stood at 74. Further, on ERK5, the “residual kinase activity, ERK5” value was determined as 41. Further, the “residual kinase activity, TIE2” value at TIE2 is 80. For the same compound, the “residual kinase activity, FGF-R1” value at FGF-R1 came to 54. Also, the “residual kinase activity, MARK2” value on MARK2 is 67. Further, the “residual kinase activity, MAPKAP-K2” value on MAPKAP-K2 was 72. For the same compound, at SIK2, the “residual kinase activity, SIK2” value worked out at 82. On MINK1, the “residual kinase activity, MINK1” value is 37. The “residual kinase activity, Aurora A” value on Aurora A is reported as 103. The “residual kinase activity, TAO1” value at TAO1 was 81.
Take `O=C(Nc1nc2ccc(O)cc2s1)c1cccnc1` [Compound 08-44]: at BRSK2, the “residual kinase activity, BRSK2” value amounted to 52. Moreover, the “residual kinase activity, ERK5” value at ERK5 is given as 43. In addition, the “residual kinase activity, TIE2” value at TIE2 is listed as 81. In addition, the “residual kinase activity, FGF-R1” value on FGF-R1 is 56. Besides, the “residual kinase activity, MARK2” value on MARK2 came to 74. Moreover, the “residual kinase activity, MAPKAP-K2” value on MAPKAP-K2 was 56. Moreover, the “residual kinase activity, SIK2” value on SIK2 came out at 68. The “residual kinase activity, MINK1” value at MINK1 is listed as 19. Moreover, the “residual kinase activity, Aurora A” value at Aurora A is recorded as 99. Also, the “residual kinase activity, TAO1” value at TAO1 is on record as 68.
